Measured values from ChEMBL document CHEMBL5523725, “Fragment-Based Anti-inflammatory Agent Design and Target Identification: Discovery of AF-45 as an IRAK4 Inhibitor to Treat Ulcerative Colitis and Acute Lung Injury” (J Med Chem, 2024).
Activity calls are given as the source filed them. No cut-off for these calls is given here.

Assays:
[1] = test system: Mus musculus; experiment: Anti-colitis activity in male C57BL/6 mouse model of DSS-induced ulcerative colitis assessed as colon length at 10 mg/kg, po administered for 11 days with subsequent administration of DSS for 8 days (reference value: 5.2 cm); type: functional; conditions: time 11 day
[2] = test system: Mus musculus; experiment: Antiinflammatory activity in LPS induced C57BL/6 mouse model of acute lung injury assessed as reduction in white pulp fusion at 20 to 40 mg/kg, ip preadministered for 30 mins followed by LPS administration and measured after 6 hrs by H and E staining based analysis; type: functional, organism-based; conditions: dose 20-40 mg/kg, time 6.5 hrs
[3] = test system: Mus musculus; experiment: Antiinflammatory activity in male C57BL/6 mouse model of DSS-induced ulcerative colitis assessed as reduction in DAI score at 20 mg/kg, po administered for 11 days with subsequent administration of DSS for 8 days; type: functional, organism-based; conditions: time 11.0 day
[4] = test system: Mus musculus; experiment: Antiinflammatory activity in LPS induced C57BL/6 mouse model of acute lung injury assessed as reduction in inflammatory exudation in lung at 20 mg/kg, ip preadministered for 30 mins followed by LPS administration and measured after 6 hrs by H and E staining based analysis; type: functional, organism-based; conditions: time 6.5 hrs
[5] = Cmax in male Sprague-Dawley rat at 1 mg/kg, iv administered via tail vein and measured upto 24 hrs; type: ADME, organism-based; conditions: in vivo
[6] = test system: J774.A1; experiment: cells; conditions: Mus musculus
Description: Antiinflammatory activity in LPS-induced mouse J774.A1 cells assessed as inhibition of TNF-alpha release pretreated for 30 mins followed by LPS stimulation and measured after 24 hrs by ELISA

[7] = test system: RAW264.7; experiment: Inhibition of NFkappaB/MAPK signaling pathway in mouse RAW264.7 cells assessed as reduction in LPS-induced p38 phosphorylation at 50 uM by Western blot analysis; type: cell-based
[8] = target: Interleukin-1 receptor-associated kinase 1 (Homo sapiens, UniProt P51617); experiment: Inhibition of IRAK1 (unknown origin)
[9] = test system: RAW264.7; experiment: Inhibition of NFkappaB signaling pathway in LPS-induced mouse RAW264.7 cells assessed as inhibition of p65 entry into nucleus pretreated for 2 hrs followed by LPS stimulation and measured after 15 mins by immunofluorescence staining based analysis; type: cell-based; conditions: time 135.0 min
[10] = test system: THP-1; experiment: cells; conditions: Homo sapiens
Description: Antiinflammatory activity in LPS-induced human THP-1 cells assessed as inhibition of TNF-alpha release pretreated for 30 mins followed by LPS stimulation and measured after 24 hrs by ELISA

[11] = test system: Mus musculus; experiment: Antiinflammatory activity in male C57BL/6 mouse model of DSS-induced ulcerative colitis assessed as preservation of goblet cells at 10 to 20 mg/kg, po administered for 11 days with subsequent administration of DSS for 8 days by H and E staining based analysis; type: functional, organism-based; conditions: dose 10-20 mg/kg, time 11.0 day
[12] = test system: Mus musculus; experiment: Anti-colitis activity in male C57BL/6 mouse model of DSS-induced ulcerative colitis assessed as colon length at 20 mg/kg, po administered for 11 days with subsequent administration of DSS for 8 days (reference value: 5.2 cm); type: functional; conditions: time 11 day
[13] = target: Cyclin-dependent kinase 16 (Homo sapiens) (UniProt Q00536); experiment: Inhibition of human PCTAIREI assessed as residual activity at 10 uM by Eurofins kinase profiler method relative to control
[14] = test system: Mus musculus; experiment: Antiinflammatory activity in male C57BL/6 mouse model of DSS-induced ulcerative colitis assessed as reduction in macrophage infiltration in spleen at 10 to 20 mg/kg, po administered for 11 days with subsequent administration of DSS for 8 days by F4/80 labeling based immunohistochemistry analysis; type: functional, organism-based; conditions: dose 10-20 mg/kg, time 11.0 day
[15] = test system: Mus musculus; experiment: Antiinflammatory activity in LPS induced ip dosed C57BL/6 mouse model of acute lung injury assessed as reduction in […] of lung preadministered for 30 mins followed by LPS administration and measured after 6 hrs; type: functional, organism-based; conditions: dose 20-40 mg/kg, time 6.5 hrs
[16] = test system: Tyrosine-protein kinase ABL1 (Homo sapiens), P00519 [T315I]; experiment: Inhibition of human ABL […] mutant assessed as residual activity at 10 uM by Eurofins kinase profiler method relative to control
[17] = test system: RAW264.7; experiment: Antiinflammatory activity in LPS-induced mouse RAW264.7 cells assessed as inhibition of IL-6 mRNA transcription pretreated for 2 hrs followed by LPS stimulation and measured after 6 hrs by RT-qPCR analysis; type: functional, cell-based; conditions: dose 5-10 µM, time 8.0 hrs
[18] = test system: Mus musculus; experiment: Antiinflammatory activity in male C57BL/6 mouse model of DSS-induced ulcerative colitis assessed as reduction in IL-6 level in serum at 20 mg/kg, po administered for 11 days with subsequent administration of DSS for 8 days by ELISA; type: functional, organism-based; conditions: time 11.0 day
[19] = test system: RAW264.7; experiment: Inhibition of NFkappaB/MAPK signaling pathway in mouse RAW264.7 cells assessed as reduction in LPS-induced p65 phosphorylation at 50 uM by Western blot analysis; type: cell-based
[20] = test system: Mus musculus; experiment: Antiinflammatory activity in LPS induced C57BL/6 mouse model of acute lung injury assessed as inhibition of TNFalpha release in serum at 20 to 40 mg/kg, ip preadministered for 30 mins followed by LPS administration and measured after 6 hrs by ELISA; type: functional, organism-based; conditions: dose 20-40 mg/kg, time 6.5 hrs
[21] = target: T1, Lymphocyte antigen 96 (Mus musculus) (UniProt Q9JHF9); experiment: Thermal stabilization of MD2 in mouse RAW264.7 cells assessed as reduction in decomposition at 10 uM at 45 to 51 degreeC measured after 4 hrs by CETSA; type: cell-based
T1 sequence (whole entry): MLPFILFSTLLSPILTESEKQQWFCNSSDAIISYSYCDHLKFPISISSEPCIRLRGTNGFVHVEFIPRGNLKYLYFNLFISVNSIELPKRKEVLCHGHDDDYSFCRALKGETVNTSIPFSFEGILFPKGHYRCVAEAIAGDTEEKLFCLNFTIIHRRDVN

[22] = test system: THP-1; experiment: cells; conditions: Homo sapiens; remark: listed apart in the source
Description: Antiinflammatory activity in LPS-induced human THP-1 cells assessed as inhibition of IL-6 release pretreated for 30 mins followed by LPS stimulation and measured after 24 hrs by ELISA

[23] = test system: Mus musculus; experiment: Antiinflammatory activity in LPS induced C57BL/6 mouse model of acute lung injury assessed as inhibition of TNFalpha release in BALF at 20 to 40 mg/kg, ip preadministered for 30 mins followed by LPS administration and measured after 6 hrs by ELISA; type: functional, organism-based; conditions: dose 20-40 mg/kg, time 6.5 hrs
[24] = test system: Mus musculus; experiment: Antiinflammatory activity in male C57BL/6 mouse model of DSS-induced ulcerative colitis assessed as reduction in TNF-alpha level in serum at 20 mg/kg, po administered for 11 days with subsequent administration of DSS for 8 days by ELISA; type: functional, organism-based; conditions: time 11.0 day
[25] = Tmax in male Sprague-Dawley rat at 10 mg/kg, po measured upto 24 hrs; type: ADME, organism-based; conditions: in vivo
[26] = Cytotoxicity against mouse RAW264.7 cells assessed as cell viability by MTT assay; type: toxicity, cell-based; design: concentration or dose not given beside the values; conditions: read-out: Activity
[27] = test system: RAW264.7; experiment: Antiinflammatory activity in LPS-induced mouse RAW264.7 cells assessed as inhibition of TNF-alpha mRNA transcription pretreated for 2 hrs followed by LPS stimulation and measured after 6 hrs by RT-qPCR analysis; type: functional, cell-based; conditions: dose 5-10 µM, time 8.0 hrs

Interleukin-1 receptor-associated kinase 1, sequence (P51617 whole entry): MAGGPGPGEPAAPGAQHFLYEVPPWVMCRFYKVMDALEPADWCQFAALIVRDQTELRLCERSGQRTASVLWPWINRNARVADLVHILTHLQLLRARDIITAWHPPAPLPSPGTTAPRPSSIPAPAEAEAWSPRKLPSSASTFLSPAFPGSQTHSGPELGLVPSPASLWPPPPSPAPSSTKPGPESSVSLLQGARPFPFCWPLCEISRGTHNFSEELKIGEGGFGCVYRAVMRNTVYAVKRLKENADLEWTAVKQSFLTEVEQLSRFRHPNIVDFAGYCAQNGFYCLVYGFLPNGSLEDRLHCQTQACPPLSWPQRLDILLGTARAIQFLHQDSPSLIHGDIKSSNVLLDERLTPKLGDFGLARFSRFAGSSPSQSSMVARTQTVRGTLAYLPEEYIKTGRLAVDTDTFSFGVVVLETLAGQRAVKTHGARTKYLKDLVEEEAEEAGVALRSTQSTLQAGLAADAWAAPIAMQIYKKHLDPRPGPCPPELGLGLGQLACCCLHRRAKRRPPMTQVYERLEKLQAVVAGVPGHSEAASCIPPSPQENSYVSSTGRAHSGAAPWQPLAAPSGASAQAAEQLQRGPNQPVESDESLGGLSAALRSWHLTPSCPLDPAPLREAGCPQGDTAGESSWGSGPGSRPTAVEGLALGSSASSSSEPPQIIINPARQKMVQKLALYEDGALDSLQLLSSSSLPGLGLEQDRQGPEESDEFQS
Cyclin-dependent kinase 16 (Homo sapiens), sequence (Q00536 whole entry): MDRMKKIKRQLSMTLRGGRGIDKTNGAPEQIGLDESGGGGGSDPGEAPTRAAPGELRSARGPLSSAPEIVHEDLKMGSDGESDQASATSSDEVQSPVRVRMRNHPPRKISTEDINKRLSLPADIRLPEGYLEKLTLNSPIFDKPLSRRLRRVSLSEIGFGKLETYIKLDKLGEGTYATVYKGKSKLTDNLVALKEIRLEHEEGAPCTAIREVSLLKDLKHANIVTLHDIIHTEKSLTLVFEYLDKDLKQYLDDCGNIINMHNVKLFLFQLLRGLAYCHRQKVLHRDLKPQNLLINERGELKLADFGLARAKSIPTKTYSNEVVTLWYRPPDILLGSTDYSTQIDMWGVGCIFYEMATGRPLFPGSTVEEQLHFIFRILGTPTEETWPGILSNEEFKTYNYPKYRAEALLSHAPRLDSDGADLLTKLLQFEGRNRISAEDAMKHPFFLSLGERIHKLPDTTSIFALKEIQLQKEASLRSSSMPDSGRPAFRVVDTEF

Cmax [5]: 6260 ng/mL
IC50 [6]: 2750 nM
IC50 [8]: 1770 nM
IC50 [10]: 600 nM
Activity [13]: 70%
Activity [16]: 70%
Activity [21]: inactive
IC50 [22]: 530 nM
Tmax [25]: 3 h
SMILES: COc1cc2c(O[C@H]3CC[C@@H](N)CC3)ncnc2cc1OCc1ccccc1
Activity [1]: 5.9 cm
Activity [2]: Active
Activity [3]: Active
Activity [4]: Active
inhibition [7]: Active
inhibition [9]: Active
Activity [11]: Active
Activity [12]: 6.2 cm
Activity [14]: Active
Activity [15]: Dose-Dependent Effect
Activity [17]: Dose-Dependent Effect
Activity [18]: Active
inhibition [19]: Active
Activity [20]: Active
Activity [23]: Active
Activity [24]: Active
viability [26]: 98.2%
Activity [27]: Dose-Dependent Effect
